Test results: US11970494B2, “6-heteroaryloxy benzimidazoles and azabenzimidazoles as JAK2 inhibitors” (Ajax Therapeutics, Inc., priority 2021, dated 2024)
Values after ≈ are worked out from the molar mass of the structure shown.

Legend:
[1] = Kinetic Solubility Assay; type: physicochemical; conditions: aqueous buffer, kinetic from dmso stock, kinetic solubility in PBS (pH 4.0 and pH 7.4 in method; pH of table values not stated), RT
Protocol: Stock solutions of test compounds are prepared in DMSO at the concentration of 10 mM, and a stock solution of control compound is prepared in DMSO at the concentration of 30 mM. Diclofenac is used as positive control in the assay. 30 μL stock solution of each compound is placed into their a 96-well rack, followed by adding 970 μL of PBS at pH 4.0 and pH 7.4 into each vial of the cap-less solubility sample plate. This study is performed in duplicate. One stir stick is added to each vial and then vials are sealed using a molded PTDE/SIL 96-Well Plate Cover. The solubility sample plate is transferred to the Thermomixer comfort plate shaker and incubated at RT for 2 hours with shaking at 1100 rpm. After 2 hours incubation, stir sticks are removed using a big magnet and all samples from the solubility sample plate are transferred into the filter plate. All the samples are filtered by vacuum manifold. The filtered samples are diluted with methanol. Samples are analyzed by LC-MS/MS and quantified against a standard of known concentration in DMSO using LC coupled with Mass spectral peak identification and quantitation. The solubility values of the test compounds are calculated as follows, wherein INJ VOL is injection volume, DF is dilution factor, and STD is standard: […]

[2] = Caco2 Permeability Assay; type: in vitro ADME; conditions: human; for efflux ratio at 2 h, 5 μM: pH 7.4, Caco-2, 5 μM, read-out: Efflux Ratio (ER); for Papp A→B at 2 h, 5 μM: pH 7.4, Caco-2, apical to basolateral
Protocol: Preparation of Caco-2 Cells: 50 μL and 25 mL of cell culture medium are added to each well of a Transwell® insert and reservoir, respectively. Then, the HTS Transwell® plates are incubated at 37° C., 5% CO2 for 1 hour before cell seeding. Caco-2 cell cells are diluted to 6.86×10^5 cells/mL with culture medium, and 50 μL of cell suspension are dispensed into the filter well of the 96-well HTS Transwell® plate. Cells are cultivated for 14-18 days in a cell culture incubator at 37° C., 5% CO2, 95% relative humidity. Cell culture medium is replaced every other day, beginning no later than 24 hours after initial plating.
Preparation of Stock Solutions: 10 mM stock solutions of test compounds are prepared in DMSO. The stock solutions of positive controls are prepared in DMSO at the concentration of 10 mM. Digoxin and propranolol are used as control compounds in this assay.
Assessment of Cell Monolayer Integrity: Medium is removed from the reservoir and each Transwell® insert and is replaced with prewarmed fresh culture medium. Transepithelial electrical resistance (TEER) across the monolayer is measured using Millicell Epithelial Volt-Ohm measuring system (Millipore, USA). The Plate is returned to the incubator once the measurement is done. The TEER value is calculated according to the following equation: TEER measurement (ohms)×Area of membrane (cm^2)=TEER value (ohm⋅cm^2). A TEER value greater than 230 ohm⋅cm^2 indicates a well-qualified Caco-2 monolayer.
Assay Procedure: The Caco-2 plate is removed from the incubator and washed twice with pre-warmed HBSS (10 mM HEPES, pH 7.4), and then incubated at 37° C. for 30 minutes. The stock solutions of control compounds are diluted in DMSO to get 1 mM solutions and then diluted with HBSS (10 mM HEPES, pH 7.4) to get 5 μM working solutions. The stock solutions of the test compounds are diluted in DMSO to get 1 mM solutions and then diluted with HBSS (10 mM HEPES and 4% BSA, pH 7.4) to get 5 μM working solutions. The final concentration of DMSO in the incubation system is 0.5%. To determine the rate of drug transport in the apical to basolateral direction. 75 μL of 5 μM working solutions of test compounds are added to the Transwell® insert (apical compartment) and the wells in the receiver plate (basolateral compartment) are filled with 235 μL of HBSS (10 mM HEPES and 4% BSA, pH 7.4). To determine the rate of drug transport in the basolateral to apical direction, 235 μL of 5 μM working solutions of test compounds are added to the receiver plate wells (basolateral compartment) and then the Transwell® inserts (apical compartment) are filled with 75 μL of HBSS (10 mM HEPES and 4% BSA, pH 7.4). Time 0 samples are prepared by transferring 50 μL of 5 μM working solution to wells of the 96-deepwell plate, followed by the addition of 200 μL cold methanol containing appropriate internal standards (IS). The plates are incubated at 37° C. for 2 hours. At the end of the incubation, 50 μL samples from donor sides (apical compartment for Ap→*Bl flux, and basolateral compartment for Bl→Ap) and receiver sides (basolateral compartment for Ap→Bl flux, and apical compartment for Bl→Ap) are transferred to wells of a new 96-well plate, followed by the addition of 4 volume of cold acetonitrile or methanol containing appropriate internal standards (IS). Samples are vortexed for 5 minutes and then centrifuged at 3,220 g for 40 minutes. An aliquot of 100 μL of the supernatant is mixed with an appropriate volume of ultra-pure water before LC-MS/MS analysis. To determine the Lucifer Yellow leakage after 2 hour transport period, stock solution of Lucifer yellow is prepared in ultra-pure water and diluted with HBSS (10 mM HEPES, pH 7.4) to reach the final concentration of 100 μM. 100 μL of the Lucifer yellow solution is added to each Transwell® insert (apical compartment), followed by filling the wells in the receiver plate (basolateral compartment) with 300 μL of HBSS (10 mM HEPES, pH 7.4). […]

Row | solubility at 2 h [1] [µM] | efflux ratio at 2 h, 5 μM [2] | Papp A→B at 2 h, 5 μM [2] [×10⁻⁶ cm/s] | SMILES
1 | 0.1 to 9 (≈ 0.0539 to 4.86 µg/mL) | 2 to 5 | 6 | Cn1cc(C(F)(F)F)cc(Nc2nc3ncc(Oc4ccnc(NC(=O)N5CCC5)c4)c(C#N)c3n2C)c1=O [Example I-7, N-(4-((7-cyano-1-methyl-2-((1-methyl-2-oxo-5-(trifluoromethyl)-1,2-dihydropyridin-3-yl)amino)-1H-imidazo[4,5-b]pyridin-6-yl)oxy)pyridin-2-yl)azetidine-1-carboxamide]
2 | 0.1 to 9 (≈ 0.0584 to 5.25 µg/mL) | 2 to 5 | 4 | CO[C@H]1CCN(C(=O)Nc2cc(Oc3cnc4nc(Nc5cc(C(F)(F)F)cn(C)c5=O)n(C)c4c3C#N)ccn2)C1 [Example I-14, (S)-N-(4-((7-cyano-1-methyl-2-((1-methyl-2-oxo-5-(trifluoromethyl)-1,2-dihydropyridin-3-yl)amino)-1H-imidazo[4,5-b]pyridin-6-yl)oxy)pyridin-2-yl)-3-methoxypyrrolidine-1-carboxamide]
3 | 9 to 100 (≈ 4.95 to 55.1 µg/mL) | 5 to 10 | 2 | COC1CN(C(=O)Nc2cc(Oc3cnc4nc(Nc5cc6n(n5)CCCC6(F)F)n(C)c4c3C#N)ccn2)C1 [Example I-26, N-(4-((7-cyano-2-((4,4-difluoro-4,5,6,7-tetrahydropyrazolo[1,5-a]pyridin-2-yl)amino)-1-methyl-1H-imidazo[4,5-b]pyridin-6-yl)oxy)pyridin-2-yl)-3-methoxyazetidine-1-carboxamide]
4 | 0.1 to 9 (≈ 0.0546 to 4.91 µg/mL) | 5 to 10 | 2 | Cn1c(Nc2cc3n(n2)CCOC3(C)C)nc2ncc(Oc3ccnc(NC(=O)O[C@@H]4CCOC4)c3)c(C#N)c21 [Example I-48, (R)-Tetrahydrofuran-3-yl(4-((7-cyano-2-((4,4-dimethyl-6,7-dihydro-4H-pyrazolo[5,1-c][1,4]oxazin-2-yl)amino)-1-methyl-1H-imidazo[4,5-b]pyridin-6-yl)oxy)pyridin-2-yl)carbamate]

The remaining lines, values behind:

Row | SMILES | solubility at 2 h [1] [µM] | efflux ratio at 2 h, 5 μM [2] | Papp A→B at 2 h, 5 μM [2] [×10⁻⁶ cm/s]
5 | COC(=O)Nc1cc(Oc2cnc3nc(Nc4cc(C(F)(F)F)cn(C)c4=O)n(C)c3c2C#N)ccn1 [Example I-3, Methyl (4-((7-cyano-1-methyl-2-((1-methyl-2-oxo-5-(trifluoromethyl)-1,2-dihydropyridin-3-yl)amino)-1H-imidazo[4,5-b]pyridin-6-yl)oxy)pyridin-2-yl)carbamate] | 0.1 to 9 (≈ 0.0514 to 4.63 µg/mL) | ≤ 2 | 12
6 | CN(C)C(=O)Nc1cc(Oc2cnc3nc(Nc4cc(C(F)(F)F)cn(C)c4=O)n(C)c3c2C#N)ccn1 [Example I-4, 3-(4-((7-cyano-1-methyl-2-((1-methyl-2-oxo-5-(trifluoromethyl)-1,2-dihydropyridin-3-yl)amino)-1H-imidazo[4,5-b]pyridin-6-yl)oxy)pyridin-2-yl)-1,1-dimethylurea] | 9 to 100 (≈ 4.75 to 52.7 µg/mL) | 2 to 5 | 7
7 | Cn1cc(C(F)(F)F)cc(Nc2nc3ncc(Oc4ccnc(NC(=O)OCCN5CCOCC5)c4)c(C#N)c3n2C)c1=O [Example I-15, 2-Morpholinoethyl(4-((7-cyano-1-methyl-2-((1-methyl-2-oxo-5-(trifluoromethyl)-1,2-dihydropyridin-3-yl)amino)-1H-imidazo[4,5-b]pyridin-6-yl)oxy)pyridin-2-yl)carbamate] | 9 to 100 (≈ 5.52 to 61.4 µg/mL) | 2 to 5 | 4
8 | Cn1cc(C(F)(F)F)cc(Nc2nc3ncc(Oc4ccnc(NC(=O)O[C@@H]5CCOC5)c4)c(C#N)c3n2C)c1=O [Example I-18, (R)-Tetrahydrofuran-3-yl(4-((7-cyano-1-methyl-2-((1-methyl-2-oxo-5-(trifluoromethyl)-1,2-dihydropyridin-3-yl)amino)-1H-imidazo[4,5-b]pyridin-6-yl)oxy)pyridin-2-yl)carbamate] | 0.1 to 9 (≈ 0.057 to 5.13 µg/mL) | 2 to 5 | 2
